Biological target: T1, HDAC6 enzyme (Homo sapiens, UniProt Q9UBN7)
T1 construct: HDAC6 enzyme prepared by transducing full length HDAC6 gene into Sf-9 insect cells; GST; purchased SignalChem; host or cells: Sf-9 insect cells
T1 sequence (Q9UBN7 1-1215): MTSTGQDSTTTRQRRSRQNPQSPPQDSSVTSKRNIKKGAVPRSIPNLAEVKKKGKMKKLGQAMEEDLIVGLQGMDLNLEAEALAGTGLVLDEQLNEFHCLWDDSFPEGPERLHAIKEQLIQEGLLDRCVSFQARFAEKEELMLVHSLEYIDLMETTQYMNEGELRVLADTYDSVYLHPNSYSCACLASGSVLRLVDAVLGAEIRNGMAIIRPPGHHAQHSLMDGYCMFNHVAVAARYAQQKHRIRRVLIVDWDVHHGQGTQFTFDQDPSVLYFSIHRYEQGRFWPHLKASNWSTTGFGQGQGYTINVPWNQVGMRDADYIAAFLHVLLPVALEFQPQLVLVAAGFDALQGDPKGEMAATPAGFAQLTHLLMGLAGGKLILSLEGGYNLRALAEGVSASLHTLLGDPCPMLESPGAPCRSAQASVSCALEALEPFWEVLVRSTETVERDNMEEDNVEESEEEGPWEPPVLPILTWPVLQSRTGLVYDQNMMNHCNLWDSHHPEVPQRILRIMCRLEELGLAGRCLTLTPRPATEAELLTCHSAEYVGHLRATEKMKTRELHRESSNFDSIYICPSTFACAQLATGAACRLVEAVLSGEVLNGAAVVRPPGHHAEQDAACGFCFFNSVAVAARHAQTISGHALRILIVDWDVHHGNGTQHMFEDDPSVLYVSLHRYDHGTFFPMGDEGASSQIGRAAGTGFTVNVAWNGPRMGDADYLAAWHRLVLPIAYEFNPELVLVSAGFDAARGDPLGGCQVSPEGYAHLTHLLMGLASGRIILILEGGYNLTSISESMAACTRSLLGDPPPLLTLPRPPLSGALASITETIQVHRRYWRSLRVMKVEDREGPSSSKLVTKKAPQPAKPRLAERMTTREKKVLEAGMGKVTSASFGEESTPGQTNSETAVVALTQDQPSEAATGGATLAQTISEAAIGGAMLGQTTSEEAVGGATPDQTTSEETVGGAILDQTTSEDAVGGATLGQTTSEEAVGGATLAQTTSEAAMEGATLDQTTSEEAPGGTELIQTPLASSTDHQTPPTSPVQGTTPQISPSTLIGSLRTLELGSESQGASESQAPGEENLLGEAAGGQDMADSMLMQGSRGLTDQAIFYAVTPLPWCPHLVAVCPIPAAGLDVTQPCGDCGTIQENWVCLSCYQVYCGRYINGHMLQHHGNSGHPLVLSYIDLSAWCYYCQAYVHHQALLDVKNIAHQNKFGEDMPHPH
Test: HDAC6 enzyme inhibitory assay (HDAC-Glo I/II Assay kit)
Format: biochemical
Settings: wells without enzyme = 100% inhibition
Method in brief: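 Full-length GST-purified HDAC6 from Sf-9 cells preincubated with compound 60 min at room temperature in Tris-HCl pH 7.5 buffer with MgCl2, KCl, NaCl, glutathione, Tween-20. Substrate-developer reaction 20 min, luminescence read; no-enzyme wells set as 100% inhibition.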

SMILES	HDAC6 inhibitory rate (%) (10 μM)
O=C1c2cc(-c3nnc(C(F)F)o3)ccc2CN1[C@H](c1cnccn1)[C@@H](O)c1ccc(F)c(F)c1 (single isomer, unassigned) [Example 86, 6-[5-(difluoromethyl)-1,3,4-oxadiazol-2-yl]-2-[(1R*,2S*)-2-(3,4-difluorophenyl)-2-hydroxy-1-(pyrazin-2-yl)ethyl]-2,3-dihydro-1H-isoindol-1-one]	100%
O=C1c2cc(-c3nnc(C(F)F)o3)ccc2CN1[C@H](c1ccc(F)cc1)[C@@H](O)c1ccccc1 (single isomer, unassigned) [Example 46, 6-[5-(difluoromethyl)-1,3,4-oxadiazol-2-yl]-2-[(1R*,2S*)-1-(4-fluorophenyl)-2-hydroxy-2-phenylethyl]-2,3-dihydro-1H-isoindol-1-one]	100%
O=C1c2cc(-c3nnc(C(F)F)o3)ccc2CN1[C@H](c1cccnn1)[C@@H](O)c1ccc(F)c(F)c1 (single isomer, unassigned) [Example 109, 6-[5-(difluoromethyl)-1,3,4-oxadiazol-2-yl]-2-[(1R*,2S*)-2-(3,4-difluorophenyl)-2-hydroxy-1-(pyridazin-3-yl)ethyl]-2,3-dihydro-1H-isoindol-1-one]	100%

Same assay, conditions: wells without enzyme = 100% inhibition, 10 µM

SMILES	HDAC6 inhibitory rate (%) (10 μM)
O=C1c2cc(-c3nnc(C(F)F)o3)ccc2CN1[C@H](C1CC1)[C@@H](O)c1ncccn1 (single isomer, unassigned) [Example 74, 2-[(1R*,2R*)-1-cyclopropyl-2-hydroxy-2-(pyrimidin-2-yl)ethyl]-6-[5-(difluoromethyl)-1,3,4-oxadiazol-2-yl]-2,3-dihydro-1H-isoindol-1-one]	96%
O=C1c2cc(-c3nnc(C(F)F)o3)ccc2CN1[C@H](c1ccccn1)[C@@H](O)c1cc(Cl)ccn1 (single isomer, unassigned) [Example 124, 2-[(1R*,2R*)-2-(4-chloropyridin-2-yl)-2-hydroxy-1-(pyridin-2-yl)ethyl]-6-[5-(difluoromethyl)-1,3,4-oxadiazol-2-yl]-2,3-dihydro-1H-isoindol-1-one]	100%
O=C1c2cc(-c3nnc(C(F)F)o3)ccc2CN1[C@H](C1CCOCC1)[C@@H](O)c1ccc(Cl)cc1 (single isomer, unassigned) [Example 84, 2-[(1R*,2S*)-2-(4-chlorophenyl)-2-hydroxy-1-(oxan-4-yl)ethyl]-6-[5-(difluoromethyl)-1,3,4-oxadiazol-2-yl]-2,3-dihydro-1H-isoindol-1-one]	100%

Same assay, conditions: wells without enzyme = 100% inhibition, read-out: HDAC6 inhibitory rate (%) (10 μM)

SMILES	inhibition at 10 µM
O=C1c2cc(-c3nnc(C(F)F)o3)ccc2CN1[C@H](c1ccc(F)cc1)[C@H](O)c1ccc(C(F)(F)F)nc1 (racemic) [Example 142, 6-[5-(difluoromethyl)-1,3,4-oxadiazol-2-yl]-2-{(1RS,2RS)-1-(4-fluorophenyl)-2-hydroxy-2-[6-(trifluoromethyl)pyridin-3-yl]ethyl}-2,3-dihydro-1H-isoindol-1-one]	100%
O=C1c2cc(-c3nnc(C(F)F)o3)ccc2CN1[C@H](c1ccccn1)[C@H](O)c1ccc(F)cc1 (racemic) [Example 141, 6-[5-(difluoromethyl)-1,3,4-oxadiazol-2-yl]-2-[(1RS,2RS)-2-(4-fluorophenyl)-2-hydroxy-1-(pyridin-2-yl)ethyl]-2,3-dihydro-1H-isoindol-1-one]	99%
O=C1c2cc(-c3nnc(C(F)F)o3)ccc2CN1[C@H](C1CCOCC1)[C@@H](O)c1cccc(Cl)c1 (single isomer, unassigned) [Example 70, 2-[(1R*,2S*)-2-(3-chlorophenyl)-2-hydroxy-1-(oxan-4-yl)ethyl]-6-[5-(difluoromethyl)-1,3,4-oxadiazol-2-yl]-2,3-dihydro-1H-isoindol-1-one]	101%
O=C1c2cc(-c3nnc(C(F)F)o3)ccc2CN1[C@H](c1ccc(F)cc1F)[C@@H](O)c1ccccn1 (racemic) [Example 31, 6-[5-(difluoromethyl)-1,3,4-oxadiazol-2-yl]-2-[(1RS,2RS)-1-(2,4-difluorophenyl)-2-hydroxy-2-(pyridin-2-yl)ethyl]-2,3-dihydro-1H-isoindol-1-one]	97%
O=C1c2cc(-c3nnc(C(F)F)o3)ccc2CN1[C@H](c1ccc(F)cc1F)[C@@H](O)c1ccc(F)cc1 (single isomer, unassigned) [Example 32, 6-[5-(difluoromethyl)-1,3,4-oxadiazol-2-yl]-2-[(1R*,2S*)-1-(2,4-difluorophenyl)-2-(4-fluorophenyl)-2-hydroxyethyl]-2,3-dihydro-1H-isoindol-1-one]	99%
O=C1c2cc(-c3nnc(C(F)F)o3)ccc2CN1[C@H](c1ccccc1)[C@@H](O)c1cccc(F)c1 (racemic) [Example 23, 6-[5-(difluoromethyl)-1,3,4-oxadiazol-2-yl]-2-[(1RS,2SR)-2-(3-fluorophenyl)-2-hydroxy-1-phenylethyl]-2,3-dihydro-1H-isoindol-1-one]	100%
O=C1c2cc(-c3nnc(C(F)F)o3)ccc2CN1[C@H](c1ccc(F)cc1)[C@@H](O)c1ccc(C(F)(F)F)nc1 (relative stereo) [Example 55, 6-[5-(difluoromethyl)-1,3,4-oxadiazol-2-yl]-2-{(1R*,2S)-1-(4-fluorophenyl)-2-hydroxy-2-[6-(trifluoromethyl)pyridin-3-yl]ethyl}-2,3-dihydro-1H-isoindol-1-one]	98%
O=C1c2cc(-c3nnc(C(F)F)o3)ccc2CN1[C@@H](c1ccc(F)cn1)[C@H](O)c1ccc(F)cn1 (stereo in doubt) [Example 6, 2-[(1S,2S)-1,2-bis(5-fluoropyridin-2-yl)-2-hydroxyethyl]-6-[5-(difluoromethyl)-1,3,4-oxadiazol-2-yl]-2,3-dihydro-1H-isoindol-1-one]	100%
O=C1c2cc(-c3nnc(C(F)F)o3)ccc2CN1[C@H](C1CCOCC1)[C@@H](O)c1cccc(F)c1 [Example 64, 6-[5-(difluoromethyl)-1,3,4-oxadiazol-2-yl]-2-[(1R,2S)-2-(3-fluorophenyl)-2-hydroxy-1-(oxan-4-yl)ethyl]-2,3-dihydro-1H-isoindol-1-one]	100%
O=C1c2cc(-c3nnc(C(F)F)o3)ccc2CN1[C@H](c1ccccn1)[C@@H](O)c1ccc(C(F)(F)F)cn1 (single isomer, unassigned) [Example 104, 6-[5-(difluoromethyl)-1,3,4-oxadiazol-2-yl]-2-{(1R*,2R*)-2-hydroxy-1-(pyridin-2-yl)-2-[5-(trifluoromethyl)pyridin-2-yl]ethyl}-2,3-dihydro-1H-isoindol-1-one]	100%
O=C1c2cc(-c3nnc(C(F)F)o3)ccc2CN1[C@H](c1cccc(F)n1)[C@@H](O)c1cccc(F)c1 (single isomer, unassigned) [Example 89, 6-[5-(difluoromethyl)-1,3,4-oxadiazol-2-yl]-2-[(1R*,2S*)-2-(3-fluorophenyl)-1-(6-fluoropyridin-2-yl)-2-hydroxyethyl]-2,3-dihydro-1H-isoindol-1-one]	100%
O=C1c2cc(-c3nnc(C(F)F)o3)ccc2CN1[C@H](c1ccc(F)nc1)[C@@H](O)c1ccc(F)c(F)c1 (racemic) [Example 56, 6-[5-(difluoromethyl)-1,3,4-oxadiazol-2-yl]-2-[(1RS,2SR)-2-(3,4-difluorophenyl)-1-(6-fluoropyridin-3-yl)-2-hydroxyethyl]-2,3-dihydro-1H-isoindol-1-one]	100%
CCOc1ccc([C@H](O)[C@@H](c2ccccc2)N2Cc3ccc(-c4nnc(C(F)F)o4)cc3C2=O)cn1 (racemic) [Example 44, 6-[5-(difluoromethyl)-1,3,4-oxadiazol-2-yl]-2-[(1RS,2SR)-2-(6-ethoxypyridin-3-yl)-2-hydroxy-1-phenylethyl]-2,3-dihydro-1H-isoindol-1-one]	100%
O=C1c2cc(-c3nnc(C(F)F)o3)ccc2CN1[C@H](c1ncccn1)[C@@H](O)c1ccc(Cl)cc1 (racemic) [Example 93, 2-[(1RS,2SR)-2-(4-chlorophenyl)-2-hydroxy-1-(pyrimidin-2-yl)ethyl]-6-[5-(difluoromethyl)-1,3,4-oxadiazol-2-yl]-2,3-dihydro-1H-isoindol-1-one]	100%

Reference: patent US12384770B2, “Heterocyclic compound” (Takeda Pharmaceutical Company Limited, priority 2019, dated 2025)
